Assay results as given in US9187454B2, “Inhibitors of kinases and cancer stem cells, and methods of preparation and use thereof” (Boston Biomedical, Inc., priority 2013, dated 2015).

What was measured:
Type in all cases: cell-based
FaDu CSC = experiment: Cancer stem cell sphere culture viability, CellTiter-Glo, FaDu CSC; conditions: CSC cultures, viability 72 hours after drug treatment
Method: (§1) Cancer Stem Cell (CSC) cultures were initiated from heterogenous cancer cell lines. Briefly, cancer cell cultures were trypsonized and collected in centrifuge tubes. Cells were then pelleted by centrifugation, media removed, and cells resuspended in phosphate buffered saline (PBS). Cells were then pelleted again, and the process repeated for a total of three PBS washes. Cells were subsequently resuspended in CSC media (DMEMF-12, 1×B27 supplement (Life Technologies), 0.4% BSA, 10 ng/ml EGF, 10 ng/ml FGF). Following resuspension, cells were passed through a 40 uM cell strainer to obtain a single cell suspension. Cells were then plated in 100 mm dishes coated with 0.5% Agar to prevent cell attachment. Cells were then allowed to grow for 5-7 days to allow CSC sphere formation.
(§2) CSC spheres that were a minimum of passage 2 were dissociated with Accutase and filtered through a 40 uM cell strainer before counting to remove any cell clumps. CSCs were then plated at 1000 cells per well in black-walled 96 well plates that have been coated in 0.5% Agar in 100 uL per well of CSC media. CSCs were then allowed to grow for 72 hours. CSC cultures were then treated with a dose curve of the indicated compounds in triplicate wells. CSC cultures were harvested 72 hours after drug treatment and viability determined using CellTiter-Glo assay (Promega) as directed by the manufacturer.

FaDu = experiment: Bulk cancer cell viability, CellTiter-Glo, FaDu; conditions: viability 72 hours after drug treatment
Method: (§3) Cancer cells were plated at 5000 cells per well in black-walled 96 well plates in 100 uL per well of complete media (DMEM, 10% FBS, 1% penicillin/streptomycin). Cells were treated with each of the compounds 24 hours after plating with a dose curve of the indicated compounds in triplicate wells. Cells were harvested 72 hours after drug treatment and viability was determined using CellTiter-Glo assay (Promega) as directed by the manufacturer.

ACHN = experiment: Bulk cancer cell viability, CellTiter-Glo, ACHN; conditions: viability 72 hours after drug treatment
Method: as §3

A549 = experiment: Bulk cancer cell viability, CellTiter-Glo, A549; conditions: Homo sapiens, viability 72 hours after drug treatment
Method: as §3

A549 CSC = experiment: Cancer stem cell sphere culture viability, CellTiter-Glo, A549 CSC; conditions: Homo sapiens, CSC cultures, viability 72 hours after drug treatment
Method: as §1, §2

| SMILES | IC50 (FaDu CSC; Homo sapiens, FaDu, 72 h) | IC50 (FaDu; Homo sapiens, FaDu, 72 h) | also measured |
| --- | --- | --- | --- |
| CCN(CC)CCNC(=O)c1c(C)[nH]c(/C=C2\C(=O)Nc3cc(-c4csc(-c5ccccc5)n4)ccc32)c1C [Compound 233] | 0.66 µM | 5.02 µM | – |
| Cc1[nH]c(/C=C2\C(=O)Nc3cc(-c4csc(-c5ccccc5)n4)ccc32)c(C)c1C(=O)N1CCN(C)CC1 [Compound 234] | – | 6.29 µM | – |
| CCN(CC)CCNC(=O)c1c(C)[nH]c(/C=C2\C(=O)Nc3c2cccc3-c2csc(-c3ccccc3)n2)c1C [Compound 235] | 1.4 µM | 5.3 µM | – |
| Cc1[nH]c(/C=C2\C(=O)Nc3c2cccc3-c2csc(-c3ccccc3)n2)c(C)c1C(=O)N1CCN(C)CC1 [Compound 236] | 2.53 µM | 11.3 µM | – |
| CCN(CC)CCNC(=O)c1c(C)[nH]c(/C=C2\C(=O)Nc3cc(-c4ccc(-c5ccccc5)s4)ccc32)c1C [Compound 244] | – | 87.6 µM | – |
| CCN(CC)CCNC(=O)c1c(C)[nH]c(/C=C2\C(=O)Nc3ccc(-c4ncc(-c5ccccc5)o4)cc32)c1C [Compound 247] | – | – | IC50 (ACHN; Homo sapiens, ACHN, 72 h): 63.3 µM |
| CCN(CC)CCNC(=O)c1c(C)[nH]c(/C=C2\C(=O)Nc3ccc(-c4nnc(-c5ccccc5)s4)cc32)c1C [Compound 250] | – | 14.1 µM | IC50 (ACHN): 83.9 µM |
| CCN(CC)CCNC(=O)c1c(C)[nH]c(/C=C2\C(=O)Nc3ccc(-c4csc(-c5ccccc5)n4)nc32)c1C [Compound 261] | 0.65 µM | 1.51 µM | IC50 (ACHN; Homo sapiens, ACHN, 72 h): 1.75 µM; IC50 (A549): 1.12 µM |
| Cc1[nH]c(/C=C2\C(=O)Nc3ccc(-c4csc(-c5ccccc5)n4)nc32)c(C)c1C(=O)NCCN1CCCC1 [Compound 262] | 1.1 µM | 3.62 µM | IC50 (A549 CSC): 2.01 µM; IC50 (ACHN; Homo sapiens, ACHN, 72 h): 2.83 µM; IC50 (A549): 3.15 µM |
| CCN(CC)CCNC(=O)c1ccc(/C=C2\C(=O)Nc3ccc(-c4csc(-c5ccccc5)n4)cc32)[nH]c1=O [Compound 263] | 8.16 µM | 2.41 µM | – |
| CN1CCN(C(=O)c2ccc(/C=C3\C(=O)Nc4ccc(-c5csc(-c6ccccc6)n5)cc43)[nH]c2=O)CC1 [Compound 264] | – | 99.8 µM | – |
| O=C1Nc2ccc(-c3csc(-c4ccccc4)n3)cc2/C1=C/c1ccc(C(=O)NCCN2CCOCC2)c(=O)[nH]1 [Compound 265] | – | 62.7 µM | – |
| CCN(CC)CCNC(=O)c1c(C)[nH]c(/C=C2\C(=O)Nc3ccc(-c4cn(-c5ccccc5)nc4C)cc32)c1C [Compound 287] | – | – | IC50 (FaDu CSC): 1.31 µM; IC50 (FaDu): 5.79 µM |
| CCN(CC)CCNC(=O)c1c(C)[nH]c(/C=C2\C(=O)Nc3ccc(-c4nnc(-c5ccccc5)s4)cc32)c1C [Compound 303] | – | – | IC50 (FaDu CSC): 12.6 µM; IC50 (FaDu): 7.98 µM; IC50 (ACHN): 5.67 µM |

More lines, main results first:

| IC50 (FaDu CSC; Homo sapiens, FaDu, 72 h) | IC50 (FaDu; Homo sapiens, FaDu, 72 h) | SMILES | also measured |
| --- | --- | --- | --- |
| – | 64.8 µM | Cc1[nH]c(/C=C2\C(=O)Nc3cc(-c4csc(-c5ccccc5)n4)ccc32)c(C)c1C(=O)N1CCOCC1 [Compound 268] | – |
| – | 22.3 µM | CCN(CC)CCNC(=O)c1c(C)[nH]c(/C=C2\C(=O)Nc3ccc(C4CCN(C5CCN(C(C)=O)CC5)CC4)cc32)c1C [Compound 272] | – |
| 9.05 µM | 6.15 µM | CCN(CC)CCNC(=O)c1c(C)[nH]c(/C=C2\C(=O)Nc3ccc(-c4cnn(C5CCOCC5)c4)cc32)c1C [Compound 273] | IC50 (A549): 27.3 µM |
| 2.17 µM | 5.35 µM | CCN(CC)CCNC(=O)c1c(C)[nH]c(/C=C2\C(=O)Nc3ccc(C4=CS/C(=C\c5ccccc5)N4C)cc32)c1C [Compound 283] | – |
| 40.8 µM | 14.3 µM | CCN(CC)CCNC(=O)c1c(C)[nH]c(/C=C2\C(=O)Nc3ccc(-c4ccc(-c5cccnc5)s4)cc32)c1C [Compound 298] | – |
| – | 64.4 µM | Cc1[nH]c(/C=C2\C(=O)Nc3ccc(-c4csc(-c5ccncc5)n4)cc32)c(C)c1CCC(=O)O [Compound 348] | – |
| – | 67.8 µM | O=C1Nc2ccc(-c3csc(-c4ccncc4)n3)cc2/C1=C/c1cc2ccccc2[nH]1 [Compound 352] | – |
| – | 56 µM | Cc1cc(C(=O)NCCO)[nH]c1/C=C1\C(=O)Nc2ccc(-c3csc(-c4ccccc4)n3)cc21 [Compound 370] | – |
